Test results published in patent publication US12331040B2 (Karyopharm Therapeutics Inc., priority 2013, dated 2025).
Read-outs that look alike come from different tables or passages of the source.

Experiments:
Assay in all cases: MTT cell proliferation assay
Format in all cases: cell-based
3T3 cells = conditions: Mus musculus, NIH3T3, approximately 64-72 hours incubation
Method: (§1) The MTT cell proliferation assay was used to study the cytotoxic properties of the compounds. The assay was performed according to the method described by Roche Molecular Biochemicals, with minor modifications. The assay is based on the cleavage of the tetrazolium salt, MTT, in the presence of an electron-coupling reagent. The water-insoluble formazan salt produced must be solubilized in an additional step. Cells grown in a 96-well tissue culture plate were incubated with the MTT solution for approximately 4 hours. After this incubation period, a water-insoluble formazan dye formed. After solubilization, the formazan dye was quantitated using a scanning multi-well spectrophotometer (ELISA reader). […] The cells were seeded at 5,000-10,000 cells in each well of 96-well plate in 100 μL of fresh culture medium and were allowed to attach overnight. The stock solutions of the compounds were diluted in 100 μL cell culture medium to obtain eight concentrations of each test compound, ranging from 1 nM to 30 μM. […] All optical densities were measured at 490 nm using a Vmax Kinetic Microplate Reader (Molecular Devices). In most cases, the assay was performed in duplicate and the results were presented as a mean percent inhibition to the negative control±SE. The following formula was used to calculate the percent of inhibition: Inhibition (%)=(1−(ODo/OD))×100.
(§2) The compounds were tested against MS751, Z138 and 3T3 cells. The MS751 cell line is derived from a metastasis to lymph node of human cervix from a patient diagnosed with squamous cell carcinoma of the cervix. The Z138 cell line is a mature B-cell acute lymphoblastic leukemia cell line derived from a patient with chronic lymphocytic leukemia. 3T3 cells are standard fibroblast cells; they were originally isolated from Swiss mouse embryo tissue.

MS751 cells = conditions: Homo sapiens, MS751, MS751 cells, approximately 64-72 hours incubation
Method: as §1, §2

Z138 cells = conditions: Homo sapiens, Z-138, Z138 cells, approximately 64-72 hours incubation
Method: as §1, §2

[1] = read-out: MTT Assay IC50 MS-751
[2] = read-out: MTT Assay IC50, MS-751
[3] = read-out: MTT Assay IC50, Z-138

Structure (SMILES)	IC50 (3T3 cells; read-out: MTT Assay IC50 3T3) [µM]	IC50 (MS751 cells; [1]) [µM]	IC50 (Z138 cells; read-out: MTT Assay IC50 Z-138) [µM]	IC50 (3T3 cells; read-out: MTT Assay IC50, 3T3) [µM]	IC50 (MS751 cells; [2]) [µM]	IC50 (Z138 cells; [3]) [µM]
CC1(C)COCCN1C(=O)c1ccc(-c2cc(C(F)(F)F)c3oc(CNC(=O)/C=C/c4ccc(N)nc4)cc3c2)nc1 [Compound 569, (E)-3-(6-aminopyridin-3-yl)-N-((5-(5-(3,3-dimethylmorpholine-4-carbonyl)pyridin-2-yl)-7-(trifluoromethyl)benzofuran-2-yl)methyl)acrylamide]	> 10	< 0.1	< 0.1	–	–	–
Cc1noc(C)c1/C=C/C(=O)NCc1cc2cc(-c3ccc(C(=O)N4CCOCC4)cc3)cc(Cl)c2o1 [Compound 541, (E)-N-((7-Chloro-5-(4-(morpholine-4-carbonyl)phenyl)benzofuran-2-yl)methyl)-3-(3,5-dimethylisoxazol-4-yl)acrylamide]	> 10	0.1 to 5	0.1 to 5	–	–	–
CC1(F)CCN(C(=O)c2ccc(-c3cc(C(F)(F)F)c4oc(CNC(=O)/C=C/c5ccc(N)nc5)cc4c3)nc2)C1 (stereo not drawn) [Compound 617, (E)-3-(6-aminopyridin-3-yl)-N-((5-(5-(3-fluoro-3-methylpyrrolidine-1-carbonyl)pyridin-2-yl)-7-(trifluoromethyl)benzofuran-2-yl)methyl)acrylamide]	> 10	0.1 to 5	< 0.1	–	–	–
Nc1cc2ccc(/C=C/C(=O)NCc3cc4cc(-c5ccc(C(=O)N6CCC(F)(F)CC6)cn5)cc(C(F)(F)F)c4o3)cc2cn1 [Compound 670, (E)-3-(3-aminoisoquinolin-7-yl)-N-((5-(5-(4,4-difluoropiperidine-1-carbonyl)pyridin-2-yl)-7-(trifluoromethyl)benzofuran-2-yl)methyl)acrylamide]	–	–	–	> 10	> 10	> 10
CC1(C)C2CN(C(=O)c3ccc(-c4cc(C(F)(F)F)c5oc(CNC(=O)/C=C/c6ccc(N)nc6)cc5c4)nc3)CC21 (stereo not drawn) [Compound 631, (E)-3-(6-aminopyridin-3-yl)-N-((5-(5-(6,6-dimethyl-3-azabicyclo[3.1.0]hexane-3-carbonyl)pyridin-2-yl)-7-(trifluoromethyl)benzofuran-2-yl)methyl)acrylamide]	> 10	0.1 to 5	0.1 to 5	–	–	–
Nc1ccc(/C=C/C(=O)NCc2cc3cc(-c4ccc(C(=O)NC5(C(F)(F)F)CC5)cn4)cc(C(F)(F)F)c3o2)cn1 [Compound 619, (E)-6-(2-((3-(6-aminopyridin-3-yl)acrylamido)methyl)-7-(trifluoromethyl)benzofuran-5-yl)-N-(1-(trifluoromethyl)cyclopropyl)nicotinamide]	> 10	0.1 to 5	0.1 to 5	–	–	–
CN1CCN(C(=O)c2cnc(-c3cc(C(F)(F)F)c4oc(CNC(=O)/C=C/c5ccc(N)nc5)cc4c3)nc2)CC1 [Compound 594, (E)-3-(6-aminopyridin-3-yl)-N-((5-(5-(4-methylpiperazine-1-carbonyl)pyrimidin-2-yl)-7-(trifluoromethyl)benzofuran-2-yl)methyl)acrylamide]	> 10	0.1 to 5	0.1 to 5	–	–	–
Nc1ccc(/C=C/C(=O)NCc2cc3cc(-c4ccc(C(=S)N5CCC(F)(F)CC5)cn4)cc(-c4ccc(F)cc4F)c3o2)cn1 [Compound 708, (E)-3-(6-aminopyridin-3-yl)-N-((7-(2,4-difluorophenyl)-5-(5-(4,4-difluoropiperidine-1-carbonothioyl)pyridin-2-yl)benzofuran-2-yl)methyl)acrylamide]	–	–	–	0.1 to 5	< 0.1	< 0.1
Nc1ccc(/C=C/C(=O)NCc2cc3cc(-c4ccc(C(=O)N5CCCCC5)cc4)cc(C(F)(F)F)c3o2)cn1 [Compound 595, (E)-3-(6-aminopyridin-3-yl)-N-((5-(4-(piperidine-1-carbonyl)phenyl)-7-(trifluoromethyl)benzofuran-2-yl)methyl)acrylamide]	> 10	0.1 to 5	0.1 to 5	–	–	–
Cc1noc(-c2ccc(F)cc2)c1-c1cc(C(F)(F)F)c2oc(CNC(=O)/C=C/c3ccc(N)nc3)cc2c1 [Compound 648, (E)-3-(6-aminopyridin-3-yl)-N-((5-(5-(4-fluorophenyl)-3-methylisoxazol-4-yl)-7-(trifluoromethyl)benzofuran-2-yl)methyl)acrylamide]	> 10	0.1 to 5	0.1 to 5	–	–	–
Cc1cc(F)ncc1-c1cc(-c2ccc(C(=O)N3CCC(F)(F)CC3)cc2)cc2cc(CNC(=O)/C=C/c3ccc(N)nc3)oc12 [Compound 743, (E)-3-(6-aminopyridin-3-yl)-N-((5-(4-(4,4-difluoropiperidine-1-carbonyl)phenyl)-7-(6-fluoro-4-methylpyridin-3-yl)benzofuran-2-yl)methyl)acrylamide]	–	–	–	0.1 to 5	< 0.1	< 0.1
CO[C@@H]1CN(C(=O)c2ccc(-c3cc(C(F)(F)F)c4oc(CNC(=O)/C=C/c5ccc(N)nc5)cc4c3)nc2)C[C@H]1F [Compound 628, (E)-3-(6-aminopyridin-3-yl)-N-((5-(5-(3-fluoro-4-methoxypyrrolidine-1-carbonyl)pyridin-2-yl)-7-(trifluoromethyl)benzofuran-2-yl)methyl)acrylamide]	> 10	0.1 to 5	0.1 to 5	–	–	–
O=C(/C=C/c1cccnc1)NCc1cc2cc(-c3ccc(S(=O)(=O)N4CCC(F)(F)CC4)cc3)cc(C(F)(F)F)c2o1 [Compound 680, (E)-N-((5-(4-((4,4-difluoropiperidin-1-yl)sulfonyl)phenyl)-7-(trifluoromethyl)benzofuran-2-yl)methyl)-3-(pyridin-3-yl)acrylamide]	–	–	–	> 10	0.1 to 5	0.1 to 5
Nc1ccc(/C=C/C(=O)NCc2cc3cc(-c4ccc(C(=O)N5CC6(COC6)C5)cc4)cc(C(F)(F)F)c3o2)cn1 [Compound 611, (E)-N-((5-(4-(2-oxa-6-azaspiro[3.3]heptane-6-carbonyl)phenyl)-7-(trifluoromethyl)benzofuran-2-yl)methyl)-3-(6-aminopyridin-3-yl)acrylamide]	> 10	< 0.1	< 0.1	–	–	–
O=C(/C=C/c1cccnc1)NCc1cc2cc(-c3ccc(C(=O)N4CCOCC4)cc3)cc(Cl)c2o1 [Compound 538, (E)-N-((7-chloro-5-(4-(morpholine-4-carbonyl)phenyl)benzofuran-2-yl)methyl)-3-(pyridin-3-yl)acrylamide]	0.1 to 5	0.1 to 5	0.1 to 5	–	–	–
O=C(/C=C/c1cccnc1)NCc1cc2cc(-c3ccc(C(=O)N4CC5(COC5)C4)cc3)cc(C(F)(F)F)c2o1 [Compound 688, (E)-N-((5-(4-(2-oxa-6-azaspiro[3.3]heptane-6-carbonyl)phenyl)-7-(trifluoromethyl)benzofuran-2-yl)methyl)-3-(pyridin-3-yl)acrylamide]	–	–	–	0.1 to 5	0.1 to 5	0.1 to 5
CC(C)(O)c1ccc(-c2cc(Cl)c3oc(CNC(=O)/C=C/c4ccc(N)nc4)cc3c2)s1 [Compound 650, (E)-3-(6-aminopyridin-3-yl)-N-((7-chloro-5-(5-(2-hydroxypropan-2-yl)thiophen-2-yl)benzofuran-2-yl)methyl)acrylamide]	> 10	0.1 to 5	0.1 to 5	–	–	–
